Like-named read-outs stand apart in the source and are kept apart here.
Experiments:
Assay type in all cases: in vivo
blood-sugar = assay: Blood-sugar lowering activity in starved female rats after oral administration; conditions: for change in vivo at 1 mg/kg / change in vivo at 5 mg/kg / change in vivo at 10 mg/kg: Rattus norvegicus, po, read-out: Blood-sugar lowering activity, percent as compared with the controls; for change in vivo at 5 mg/kg: 5 mg/kg orally
Method: The blood-sugar lowering activity of the test compounds was determined in home-bred female rats with weights of from 180 to 220 grams. Twenty-four hours before starting the test the animals were starved. Before the test the compounds were suspended in 1.5% methyl cellulose and administered to the animals by means of an esophageal tube.
Blood was taken from the retroorbital plexus vein before administration of the test compounds as well as each of 1, 2, 3, and 4 hours after administration. Fifty microliters of each sample were deproteinized with 0.5 ml of 0.33N perchloric acid and centrifuged. The glucose content was determined in the supernatant according to the Hexokinase method by means of an analysis photometer. The statistical evalulation was performed with the t-test according to Student with p=0.05.

[1] = Acute toxicity in female and male mice after oral administration of a single dose; conditions: mouse, in vivo, observation time 14 days, read-out: Peroral Toxicity
Method: (§1) The acute toxicity was determined in home-bred female and male mice having body weights of from 20 to 26 gm after oral administration (suspension in a 1% methyl cellulose solution) of a single dose. Observation time: 14 days.

mice = assay: as above; conditions: observation time 14 days
Method: as §1

[2] = 1 mg/kg orally, 3 hours, n.s. = not statistically significant
[3] = 1 mg/kg orally, 4 hours, n.s. = not statistically significant
[4] = 1 mg/kg orally, 1 hour, n.s. = not statistically significant
[5] = 1 mg/kg orally, 2 hours, n.s. = not statistically significant
[6] = 1 hour, n.s. = not statistically significant
[7] = 2 hours, n.s. = not statistically significant
[8] = 3 hours, n.s. = not statistically significant
[9] = 4 hours, n.s. = not statistically significant
[10] = 10 mg/kg orally (footnote *), 3 hours, n.s. = not statistically significant
[11] = 10 mg/kg orally (footnote *), 4 hours, n.s. = not statistically significant
[12] = 10 mg/kg orally (footnote *), 1 hour
[13] = 10 mg/kg orally (footnote *), 2 hours

Cc1cccc(C(NC(=O)Cc2ccc(C(=O)O)cc2)c2ccccc2N2CCCCC2)c1 (stereo not drawn) [AB, 4-[(α-(3-Methyl-phenyl)-2-piperidino-benzyl)-aminocarbonylmethyl]-benzoic acid]
Blood-sugar lowering activity, percent as compared with the controls (blood-sugar; [2]): n.s.
Blood-sugar lowering activity, percent as compared with the controls (blood-sugar; [3]): n.s.
change in vivo at 1 mg/kg (blood-sugar; [4]): -26%
change in vivo at 1 mg/kg (blood-sugar; [5]): -15%
change in vivo at 5 mg/kg (blood-sugar; [6]): -43%
change in vivo at 5 mg/kg (blood-sugar; [7]): -38%
change in vivo at 5 mg/kg (blood-sugar; [8]): -36%
change in vivo at 5 mg/kg (blood-sugar; [9]): -27%
LD50 at 336 h [1]: > 1000 mg/kg
animals died (mice): 0 out of 10

CCCC(NC(=O)Cc1ccc(C=CC(=O)O)cc1)c1ccccc1N1CCCCC1 (stereo not drawn) [T, 4=[(1-(2-Piperidino-phenyl)-1-butyl)-aminocarbonylmethyl]-cinnamic acid]
change in vivo at 1 mg/kg (blood-sugar; [4]): -42%
change in vivo at 1 mg/kg (blood-sugar; [5]): -42%
change in vivo at 1 mg/kg (blood-sugar; [2]): -40%
change in vivo at 1 mg/kg (blood-sugar; [3]): -32%
change in vivo at 5 mg/kg (blood-sugar; [6]): -48%
change in vivo at 5 mg/kg (blood-sugar; [7]): -46%
change in vivo at 5 mg/kg (blood-sugar; [8]): -42%
change in vivo at 5 mg/kg (blood-sugar; [9]): -40%

CC1CCCCN1c1ccccc1C(NC(=O)Cc1ccc(C(=O)O)cc1)c1ccccc1 (stereo not drawn) [AQ, 4-[(2-(2-Methyl-piperidino)-α-phenyl-benzyl)-aminocarbonylmethyl]-benzoic acid]
Blood-sugar lowering activity, percent as compared with the controls (blood-sugar; [2]): n.s.
Blood-sugar lowering activity, percent as compared with the controls (blood-sugar; [3]): n.s.
change in vivo at 1 mg/kg (blood-sugar; [4]): -16%
change in vivo at 1 mg/kg (blood-sugar; [5]): -11%
change in vivo at 5 mg/kg (blood-sugar; [6]): -32%
change in vivo at 5 mg/kg (blood-sugar; [7]): -31%
change in vivo at 5 mg/kg (blood-sugar; [8]): -24%
change in vivo at 5 mg/kg (blood-sugar; [9]): -19%

CCCC(NC(=O)Cc1ccc(C(=O)O)cc1)c1ccc(OC)cc1N1CCCCC1 (stereo not drawn) [W, 4-[(1-(4-Methoxy-2-piperidino-phenyl)-1-butyl)-aminocarbonylmethyl]-benzoic acid]
Blood-sugar lowering activity, percent as compared with the controls (blood-sugar; [3]): n.s.
change in vivo at 1 mg/kg (blood-sugar; [4]): -36%
change in vivo at 1 mg/kg (blood-sugar; [5]): -25%
change in vivo at 1 mg/kg (blood-sugar; [2]): -16%
change in vivo at 5 mg/kg (blood-sugar; [6]): -46%
change in vivo at 5 mg/kg (blood-sugar; [7]): -45%
change in vivo at 5 mg/kg (blood-sugar; [8]): -39%
change in vivo at 5 mg/kg (blood-sugar; [9]): -37%

O=C(Cc1ccc(C(=O)O)cc1)NC(c1ccccc1)c1ccc(Cl)cc1N1CCCCC1 (stereo not drawn) [AM, 4-[(4-Chloro-α-phenyl-2-piperidino-benzyl)-aminocarbonylmethyl]-benzoic acid]
Blood-sugar lowering activity, percent as compared with the controls (blood-sugar; [2]): n.s.
Blood-sugar lowering activity, percent as compared with the controls (blood-sugar; [3]): n.s.
change in vivo at 1 mg/kg (blood-sugar; [4]): -11%
change in vivo at 1 mg/kg (blood-sugar; [5]): -13%
change in vivo at 5 mg/kg (blood-sugar; [6]): -34%
change in vivo at 5 mg/kg (blood-sugar; [7]): -35%
change in vivo at 5 mg/kg (blood-sugar; [8]): -32%
change in vivo at 5 mg/kg (blood-sugar; [9]): -29%

CC/C=C(\NC(=O)Cc1ccc(C(=O)O)cc1)c1ccccc1N1CCCC(C)(C)C1 [G, (Z)-4-[(1-(2-(3,3-Dimethyl-piperidino)-phenyl)-1-buten-1-yl)-aminocarbonylmethyl]-benzoic acid]
change in vivo at 1 mg/kg (blood-sugar; [4]): -44%
change in vivo at 1 mg/kg (blood-sugar; [5]): -42%
change in vivo at 1 mg/kg (blood-sugar; [2]): -37%
change in vivo at 1 mg/kg (blood-sugar; [3]): -31%

CCCC(NC(=O)Cc1ccc(C(=O)O)cc1)c1ccccc1N1CCCCC1 (single isomer, unassigned; (+)) [K, (+)-4-[(1-(2-Piperidino-phenyl)-1-butyl)-aminocarbonylmethyl]-benzoic acid]
change in vivo at 1 mg/kg (blood-sugar; [4]): -41%
change in vivo at 1 mg/kg (blood-sugar; [5]): -43%
change in vivo at 1 mg/kg (blood-sugar; [2]): -38%
change in vivo at 1 mg/kg (blood-sugar; [3]): -31%

O=Cc1ccc(CC(=O)NC(c2ccccc2)c2ccccc2N2CCCCC2)cc1 (stereo not drawn) [AP, 4-[(α-Phenyl-2-piperidino-benzyl)-aminocarbonylmethyl]-benzaldehyde]
change in vivo at 1 mg/kg (blood-sugar; [4]): -26%
change in vivo at 1 mg/kg (blood-sugar; [5]): -28%
change in vivo at 1 mg/kg (blood-sugar; [2]): -22%
change in vivo at 1 mg/kg (blood-sugar; [3]): -17%

CCCC(NC(=O)Cc1ccc(C(=O)OCC(O)CO)cc1)c1ccccc1N1CCCCC1 (stereo not drawn) [U, 4-[(1-(2-Piperidino-phenyl)-1-butyl)-aminocarbonylmethyl]-benzoic acid 2,3-dihydroxy-propyl ester]
change in vivo at 1 mg/kg (blood-sugar; [4]): -39%
change in vivo at 1 mg/kg (blood-sugar; [5]): -35%
change in vivo at 1 mg/kg (blood-sugar; [2]): -29%
change in vivo at 1 mg/kg (blood-sugar; [3]): -24%
change in vivo at 5 mg/kg (blood-sugar; [6]): -43%
change in vivo at 5 mg/kg (blood-sugar; [7]): -43%
change in vivo at 5 mg/kg (blood-sugar; [8]): -49%
change in vivo at 5 mg/kg (blood-sugar; [9]): -45%

O=C(Cc1ccc(C(=O)O)cc1)NC(c1ccccc1)c1c(Cl)cccc1N1CCCCC1 (stereo not drawn) [AJ, 4-[(6-Chloro-α-phenyl-2-piperidino-benzyl)-aminocarbonylmethyl]-benzoic acid]
change in vivo at 1 mg/kg (blood-sugar; [4]): -35%
change in vivo at 1 mg/kg (blood-sugar; [5]): -34%
change in vivo at 1 mg/kg (blood-sugar; [2]): -28%
change in vivo at 1 mg/kg (blood-sugar; [3]): -20%
change in vivo at 5 mg/kg (blood-sugar; [6]): -44%
change in vivo at 5 mg/kg (blood-sugar; [7]): -40%
change in vivo at 5 mg/kg (blood-sugar; [8]): -39%
change in vivo at 5 mg/kg (blood-sugar; [9]): -40%

O=C(Cc1ccc(C(=O)O)cc1)NC(CCc1ccccc1)c1ccccc1N1CCCCC1 (stereo not drawn) [O, 4-[(3-Phenyl-1-(2-piperidino-phenyl)-1-propyl)-aminocarbonylmethyl]-benzoic acid]
Blood-sugar lowering activity, percent as compared with the controls (blood-sugar; [10]): n.s.
Blood-sugar lowering activity, percent as compared with the controls (blood-sugar; [11]): n.s.
change in vivo at 10 mg/kg (blood-sugar; [12]): -38%
change in vivo at 10 mg/kg (blood-sugar; [13]): -31%

O=C(Cc1ccc(C(=O)O)cc1)NC(c1ccccc1)c1cccc(Cl)c1N1CCCCC1 (stereo not drawn) [AS, 4-[(3-Chloro-α-phenyl-2-piperidino-benzyl)-aminocarbonylmethyl]-benzoic acid]
Blood-sugar lowering activity, percent as compared with the controls (blood-sugar; [2]): n.s.
Blood-sugar lowering activity, percent as compared with the controls (blood-sugar; [3]): n.s.
change in vivo at 1 mg/kg (blood-sugar; [4]): -21%
change in vivo at 1 mg/kg (blood-sugar; [5]): -13%
change in vivo at 5 mg/kg (blood-sugar; [6]): -45%
change in vivo at 5 mg/kg (blood-sugar; [7]): -44%
change in vivo at 5 mg/kg (blood-sugar; [8]): -42%
change in vivo at 5 mg/kg (blood-sugar; [9]): -32%

CCCC(NC(=O)Cc1ccc(C(=O)OCC)cc1)c1ccccc1N1CCCCC1 (single isomer, unassigned; (+)) [L, (+)-4-[(1-(2-Piperidino-phenyl)-1-butyl)-aminocarbonylmethyl]-benzoic acid ethyl ester]
Blood-sugar lowering activity, percent as compared with the controls (blood-sugar; [3]): n.s.
change in vivo at 1 mg/kg (blood-sugar; [4]): -14%
change in vivo at 1 mg/kg (blood-sugar; [5]): -18%
change in vivo at 1 mg/kg (blood-sugar; [2]): -14%
change in vivo at 5 mg/kg (blood-sugar; [6]): -42%
change in vivo at 5 mg/kg (blood-sugar; [7]): -45%
change in vivo at 5 mg/kg (blood-sugar; [8]): -31%
change in vivo at 5 mg/kg (blood-sugar; [9]): -22%

C=C(NC(=O)Cc1ccc(C(=O)O)cc1)c1ccccc1N1CCCCCCCC1 [X, 4-[(1-(2-Octahydroazonino-phenyl)-1-ethenyl)-aminocarbonylmethyl]-benzoicacid]
change in vivo at 10 mg/kg (blood-sugar; [12]): -34%
change in vivo at 10 mg/kg (blood-sugar; [13]): -21%
change in vivo at 10 mg/kg (blood-sugar; [10]): -17%
change in vivo at 10 mg/kg (blood-sugar; [11]): -14%

CC1CCCN(c2ccccc2C(NC(=O)Cc2ccc(C(=O)O)cc2)c2ccccc2)C1 (stereo not drawn) [AR, 4-[(2-(3-Methyl-piperidino)-α-phenyl-benzyl)-aminocarbonylmethyl]-benzoic acid]
Blood-sugar lowering activity, percent as compared with the controls (blood-sugar; [2]): n.s.
Blood-sugar lowering activity, percent as compared with the controls (blood-sugar; [3]): n.s.
change in vivo at 1 mg/kg (blood-sugar; [4]): -13%
change in vivo at 1 mg/kg (blood-sugar; [5]): -9%
change in vivo at 5 mg/kg (blood-sugar; [6]): -35%
change in vivo at 5 mg/kg (blood-sugar; [7]): -30%
change in vivo at 5 mg/kg (blood-sugar; [8]): -29%
change in vivo at 5 mg/kg (blood-sugar; [9]): -31%

CC(NC(=O)Cc1ccc(C(=O)O)cc1)c1cccc(Cl)c1N1CCCCC1 (stereo not drawn) [Y, 4-[(1-(3-Chloro-2-piperidino-phenyl)-1-ethyl)-aminocarbonylmethyl]-benzoic acid]
change in vivo at 5 mg/kg (blood-sugar; [6]): -32%
change in vivo at 5 mg/kg (blood-sugar; [7]): -24%
change in vivo at 5 mg/kg (blood-sugar; [8]): -16%
change in vivo at 5 mg/kg (blood-sugar; [9]): -18%

Cc1ccc(C(NC(=O)Cc2ccc(C(=O)O)cc2)c2ccccc2)c(N2CCCCC2)c1 (stereo not drawn) [AO, 4-[(4-Methyl-α-phenyl-2-piperidino-benzyl)-aminocarbonylmethyl]-benzoic acid]
change in vivo at 1 mg/kg (blood-sugar; [5]): -17%
change in vivo at 1 mg/kg (blood-sugar; [2]): -15%
change in vivo at 1 mg/kg (blood-sugar; [3]): -11%
change in vivo at 5 mg/kg (blood-sugar; [6]): -37%
change in vivo at 5 mg/kg (blood-sugar; [7]): -34%
change in vivo at 5 mg/kg (blood-sugar; [8]): -32%
change in vivo at 5 mg/kg (blood-sugar; [9]): -31%

CCCCCC(NC(=O)Cc1ccc(C(=O)O)cc1)c1ccccc1N1CCCCC1 (stereo not drawn) [N, 4-[(1-(2-Piperidino-phenyl)-1-hexyl)-aminocarbonylmethyl]-benzoic acid]
change in vivo at 5 mg/kg (blood-sugar; [6]): -42%
change in vivo at 5 mg/kg (blood-sugar; [7]): -42%
change in vivo at 5 mg/kg (blood-sugar; [8]): -37%
change in vivo at 5 mg/kg (blood-sugar; [9]): -33%

— patent publication US4735959A, “Carboxylic acid amides and pharmaceutical compositions containing them” (Dr. Karl Thomae GmbH, priority 1981, dated 1988)
